Target: T1, RORγ-LBD (Homo sapiens, UniProt P51449)
T1 construct: HIS-tagged RORγ-LBD was recombinantly expressed in SF9 cells; made in house; host or cells: SF9 cells (baculovirus); unpurified lysate
T1 sequence (P51449 269-508 limits assumed): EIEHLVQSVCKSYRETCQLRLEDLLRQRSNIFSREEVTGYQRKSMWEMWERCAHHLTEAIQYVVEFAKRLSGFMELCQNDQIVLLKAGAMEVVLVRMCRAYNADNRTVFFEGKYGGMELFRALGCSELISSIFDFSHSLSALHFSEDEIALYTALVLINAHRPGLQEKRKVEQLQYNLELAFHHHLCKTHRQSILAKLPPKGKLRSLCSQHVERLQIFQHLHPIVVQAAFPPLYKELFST
Assay: RORγ-Ligand Binding Domain TR-FRET Assay
Format: biochemical
Experimental: HIS-tagged RORγ-LBD was recombinantly expressed in SF9 cells using a baculovirus expression system. The protein was not purified. Cells were lysed and the lysate was used as a source for RORγ-LBD for the assay. A 1:80 dilution of RORγ-LBD lysate in assay buffer (25 mM HEPES pH 7.0, 100 mM NaCl, 0.01% Tween, 0.1% BSA) was prepared and 5 μL was added to each well (RORγ-LBD final concentration ˜10 nM). Control wells received lysate from SF9 cells not expressing RORγ-LBD.
Compounds to be tested were diluted to 100× final test concentration in DMSO and further diluted to 4× final test concentration using assay buffer to provide the test compound mixture. An aliquot (5 μL) of the test compound mixture was added to each well.
A 4× stock of biotinylated-LXXLL peptide from SRC1-2 (Biotin-[…]) was prepared in assay buffer and a 5 μL aliquot added to each well (450 nM final concentration). A 4× solution of europium tagged anti-HIS antibody (2 nM final concentration) and APC conjugated streptavidin (60 nM final concentration) were prepared and a 5 μL aliquot added to each well.
The final assay mixture was incubated for 4 hours to overnight, and the fluorescence signal was measured on an Envision plate reader: (Excitation filter=340 nm; APC emission=665 nm; Europium emission=615 nm; dichroic mirror=D400/D630; delay time=100 μs, integration time=200 μs).
IC50 values for test compounds were calculated from the quotient of the fluorescence signal at 665 nm divided by the fluorescence signal at 615 nm using GraphPad Prism software.

Cc1ccc(F)c(S(=O)(=O)n2ncc3ccc(NC(=O)c4c(F)cccc4Cl)cc32)c1 [Compound V-101]
IC50 (Table 8, indazoles): < 15 µM

COC(=O)c1cccc(S(=O)(=O)n2ncc3ccc(NC(=O)c4c(F)cccc4Cl)cc32)c1 [Compound V-108]
IC50 (Table 8, indazoles): < 15 µM

O=C(Nc1ccc2cnn(S(=O)(=O)c3ccc(N4CCOCC4)nc3)c2c1)c1c(F)cccc1Cl [Compound V-95]
IC50 (Table 8, indazoles): < 15 µM

O=C(Nc1ccc2cnn(S(=O)(=O)c3ccc(F)c(C(F)(F)F)c3)c2c1)c1c(F)cccc1F [Compound V-56]
IC50 (Table 8, indazoles): < 15 µM

COc1cccc(S(=O)(=O)n2ncc3ccc(NC(=O)c4c(F)cccc4C(F)(F)F)cc32)c1 [Compound V-49]
IC50 (Table 8, indazoles): < 15 µM

COc1cccc(S(=O)(=O)n2ncc3ccc(NC(=O)Cc4ccc(Cl)cc4)cc32)c1 [Compound V-32]
IC50 (Table 8, indazoles): < 15 µM

Cc1ccccc1S(=O)(=O)n1ncc2ccc(NC(=O)c3c(F)cccc3Cl)cc21 [Compound V-129]
IC50 (Table 8, indazoles): < 15 µM

N#Cc1ccc(S(=O)(=O)n2ncc3ccc(NC(=O)c4c(F)cccc4Cl)cc32)c(Cl)c1 [Compound V-146]
IC50 (Table 8, indazoles): < 15 µM

O=C(Nc1ccc2cnn(S(=O)(=O)c3ccc(F)c(F)c3)c2c1)c1c(F)cccc1Cl [Compound V-170]
IC50 (Table 8, indazoles): < 15 µM

CC(C)(C)c1cccc(S(=O)(=O)n2ncc3ccc(NC(=O)c4c(F)cccc4F)cc32)c1 [Compound V-57]
IC50 (Table 8, indazoles): < 15 µM

O=C(Cc1ccc(F)cc1)Nc1ccc2c(c1)N(S(=O)(=O)c1ccc(Cl)cc1)C[C@H](CO)O2 [VI-68]
IC50 (benzoxazines, Table 9): < 15 µM

N#Cc1nn(S(=O)(=O)c2cccc(C(F)(F)F)c2)c2cc(NC(=O)c3c(F)cccc3Cl)ccc12 [Compound V-9]
IC50 (Table 8, indazoles): < 15 µM

O=C(Nc1ccc2cnn(S(=O)(=O)c3ccc(F)cc3F)c2c1)c1c(F)cccc1Cl [Compound V-168]
IC50 (Table 8, indazoles): < 15 µM

O=C(Nc1ccc2cnn(S(=O)(=O)c3ccc(I)cc3)c2c1)c1c(F)cccc1Cl [Compound V-131]
IC50 (Table 8, indazoles): < 15 µM

COc1cccc(S(=O)(=O)n2ncc3ccc(NC(=O)c4c(Cl)cccc4C(F)(F)F)cc32)c1 [Compound V-40]
IC50 (Table 8, indazoles): < 15 µM

CN(C)C(=O)Nc1ccc(S(=O)(=O)n2ncc3ccc(NC(=O)c4c(F)cccc4Cl)cc32)cc1 [Compound V-134]
IC50 (Table 8, indazoles): < 15 µM

O=C(Nc1ccc2c(c1)N(S(=O)(=O)c1ccc(F)cc1)CC(C(F)(F)F)O2)c1c(F)cccc1F (centres unmarked) [VI-111]
IC50 (benzoxazines, Table 9): < 15 µM

O=C(Nc1ccc2cnn(S(=O)(=O)C3CCOCC3)c2c1)c1c(F)cccc1Cl [Compound V-79]
IC50 (Table 8, indazoles): < 15 µM

O=C(Nc1ccc2cnn(S(=O)(=O)c3ccc(Cl)c(F)c3)c2c1)c1c(F)cccc1Cl [Compound V-80]
IC50 (Table 8, indazoles): < 15 µM

O=C(Cc1ccc(Cl)cc1)Nc1ccc2c(c1)N(S(=O)(=O)c1ccc(Cl)cc1)C[C@H](CO)O2 [VI-66]
IC50 (benzoxazines, Table 9): < 15 µM

O=C(Nc1ccc2cnn(S(=O)(=O)c3cccc(Cl)c3F)c2c1)c1c(F)cccc1Cl [Compound V-167]
IC50 (Table 8, indazoles): < 15 µM

O=C(Nc1ccc2cnn(S(=O)(=O)c3ccc(Cl)c(Cl)c3)c2c1)c1c(F)cccc1Cl [Compound V-154]
IC50 (Table 8, indazoles): < 15 µM

O=C(Nc1ccc2cnn(S(=O)(=O)Cc3ccc(C(F)(F)F)cc3)c2c1)c1c(Cl)cccc1C(F)(F)F [Compound V-38]
IC50 (Table 8, indazoles): < 15 µM

O=C(Nc1ccc2cnn(S(=O)(=O)c3cc(Cl)cc(Cl)c3)c2c1)c1c(F)cccc1Cl [Compound V-126]
IC50 (Table 8, indazoles): < 15 µM

N#Cc1cccc(S(=O)(=O)N2C[C@H](CO)Oc3ccc(NC(=O)Cc4ccc(F)cc4)cc32)c1 [VI-64]
IC50 (benzoxazines, Table 9): < 15 µM

Cc1cccc(S(=O)(=O)n2nc(Br)c3ccc(NC(=O)c4c(F)cccc4Cl)cc32)c1 [Compound V-52]
IC50 (Table 8, indazoles): < 15 µM

Cc1cccc(S(=O)(=O)n2ncc3ccc(NC(=O)Cc4ccc(Cl)cc4)cc32)c1 [Compound V-31]
IC50 (Table 8, indazoles): < 15 µM

O=C(Nc1ccc2c(C(O)CO)nn(S(=O)(=O)c3cccc(C(F)(F)F)c3)c2c1)c1c(F)cccc1Cl (centres unmarked) [Compound 10, 2-Chloro-N-[3-(1,2-dihydroxyethyl)-1-(3-trifluoromethylbenzenesulfonyl)-1H-indazol-6-yl]-6-fluorobenzamide]
IC50 (Table 8, indazoles): < 15 µM

COC(=O)c1cc(C)c(S(=O)(=O)n2ncc3ccc(NC(=O)c4c(F)cccc4Cl)cc32)s1 [Compound V-152]
IC50 (Table 8, indazoles): < 15 µM

C[C@H]1CN(S(=O)(=O)c2ccc(F)cc2)c2cc(NC(=O)C3(c4ccc(Cl)cc4)CCCC3)ccc2O1 [VI-132]
IC50 (benzoxazines, Table 9): < 15 µM

O=C(Nc1ccc2cnn(S(=O)(=O)c3cccc(Cl)c3)c2c1)c1c(Cl)cccc1C(F)(F)F [Compound V-39]
IC50 (Table 8, indazoles): < 15 µM

CC(C)(C)c1cccc(S(=O)(=O)n2ncc3ccc(NC(=O)Cc4ccc(F)cc4)cc32)c1 [Compound V-23]
IC50 (Table 8, indazoles): < 15 µM

CC(C)(C)c1cccc(S(=O)(=O)n2ncc3ccc(NC(=O)c4c(F)cccc4C(F)(F)F)cc32)c1 [Compound V-11]
IC50 (Table 8, indazoles): < 15 µM

Cc1cccc(S(=O)(=O)n2ncc3ccc(NC(=O)c4c(F)cccc4C(F)(F)F)cc32)c1 [Compound V-46]
IC50 (Table 8, indazoles): < 15 µM

O=C(Nc1ccc2cnn(S(=O)(=O)Cc3cc(Cl)cc(Cl)c3)c2c1)c1c(F)cccc1Cl [Compound V-138]
IC50 (Table 8, indazoles): < 15 µM

Cc1ncc(CC(=O)Nc2ccc3cnn(S(=O)(=O)c4cccc(OC(F)F)c4)c3c2)s1 [Compound V-3]
IC50 (Table 8, indazoles): < 15 µM

O=C(Nc1ccc2cnn(S(=O)(=O)c3ccc(Br)cc3)c2c1)c1c(F)cccc1Cl [Compound V-98]
IC50 (Table 8, indazoles): < 15 µM

Cc1cccc(S(=O)(=O)n2ncc3ccc(NC(=O)Cc4cnc(C)s4)cc32)c1 [Compound V-5]
IC50 (Table 8, indazoles): < 15 µM

N#Cc1cccc(S(=O)(=O)N2C[C@@H](CO)Oc3ccc(NC(=O)Cc4ccc(F)cc4)cc32)c1 [VI-58]
IC50 (benzoxazines, Table 9): < 15 µM

C[C@H]1CN(S(=O)(=O)c2ccc(F)cc2)c2cc(NC(=O)c3c(F)cccc3C(F)(F)F)ccc2O1 [VI-19]
IC50 (benzoxazines, Table 9): < 15 µM

O=C(Nc1ccc2cnn(S(=O)(=O)c3cccc(OC(F)F)c3)c2c1)c1c(F)cccc1C(F)(F)F [Compound V-45]
IC50 (Table 8, indazoles): < 15 µM

O=C(Nc1ccc2cnn(S(=O)(=O)Cc3cc(C(F)(F)F)cc(C(F)(F)F)c3)c2c1)c1c(F)cccc1Cl [Compound V-93]
IC50 (Table 8, indazoles): < 15 µM

O=C(Nc1ccc2cnn(S(=O)(=O)Cc3ccccc3)c2c1)c1c(F)cccc1Cl [Compound V-155]
IC50 (Table 8, indazoles): < 15 µM

CNCC1CN(S(=O)(=O)c2ccc(F)cc2)c2cc(NC(=O)c3c(F)cccc3Cl)ccc2O1 (centres unmarked) [Compound 14]
IC50 (benzoxazines, Table 9): < 15 µM

O=C(Nc1ccc2cnn(S(=O)(=O)c3ccsc3)c2c1)c1c(F)cccc1Cl [Compound V-99]
IC50 (Table 8, indazoles): < 15 µM

COC(=O)c1sccc1S(=O)(=O)n1ncc2ccc(NC(=O)c3c(F)cccc3Cl)cc21 [Compound V-144]
IC50 (Table 8, indazoles): < 15 µM

Cc1ccc(S(=O)(=O)n2ncc3ccc(NC(=O)c4c(F)cccc4Cl)cc32)c(F)c1 [Compound V-118]
IC50 (Table 8, indazoles): < 15 µM

O=C(Nc1ccc2cnn(S(=O)(=O)c3ccccc3F)c2c1)c1c(F)cccc1Cl [Compound V-143]
IC50 (Table 8, indazoles): < 15 µM

CC(=O)c1ccc(S(=O)(=O)n2ncc3ccc(NC(=O)c4c(F)cccc4Cl)cc32)cc1 [Compound V-141]
IC50 (Table 8, indazoles): < 15 µM

CNC(=O)c1cccc(S(=O)(=O)n2ncc3ccc(NC(=O)c4c(F)cccc4Cl)cc32)c1 [Compound V-107]
IC50 (Table 8, indazoles): < 15 µM

C[C@@H](O)[C@H]1CN(S(=O)(=O)c2ccc(F)cc2)c2cc(NC(=O)c3c(Cl)cccc3C(F)(F)F)ccc2O1 [VI-22]
IC50 (benzoxazines, Table 9): < 15 µM

CCc1ccc(S(=O)(=O)n2ncc3ccc(NC(=O)c4c(F)cccc4Cl)cc32)cc1 [Compound V-116]
IC50 (Table 8, indazoles): < 15 µM

Cc1nn(C(F)F)cc1S(=O)(=O)n1ncc2ccc(NC(=O)c3c(Cl)cccc3C(F)(F)F)cc21 [Compound V-21]
IC50 (Table 8, indazoles): < 15 µM

Cc1ccc(S(=O)(=O)n2ncc3ccc(NC(=O)c4c(F)cccc4Cl)cc32)cc1 [Compound V-158]
IC50 (Table 8, indazoles): < 15 µM

O=C(Nc1ccc2cnn(S(=O)(=O)c3cccc(OC(F)F)c3)c2c1)c1c(F)cccc1Cl [Compound V-85]
IC50 (Table 8, indazoles): < 15 µM

Cn1cnc(S(=O)(=O)n2ncc3ccc(NC(=O)c4c(F)cccc4Cl)cc32)c1 [Compound V-147]
IC50 (Table 8, indazoles): < 15 µM

O=C(Nc1ccc2cnn(S(=O)(=O)c3cccc(C(F)(F)F)c3)c2c1)c1c(F)cccc1C(F)(F)F [Compound V-51]
IC50 (Table 8, indazoles): < 15 µM

COc1cccc(S(=O)(=O)n2ncc3ccc(NC(=O)Cc4cnc(C)s4)cc32)c1 [Compound V-7]
IC50 (Table 8, indazoles): < 15 µM

COc1ccc(S(=O)(=O)n2ncc3ccc(NC(=O)c4c(F)cccc4Cl)cc32)cn1 [Compound V-162]
IC50 (Table 8, indazoles): < 15 µM

Cc1cccc(Cl)c1C(=O)Nc1ccc2cnn(S(=O)(=O)c3cccc(C(F)(F)F)c3)c2c1 [Compound V-8]
IC50 (Table 8, indazoles): < 15 µM

CC(=O)c1cccc(S(=O)(=O)n2ncc3ccc(NC(=O)Cc4cnc(C)s4)cc32)c1 [Compound V-4]
IC50 (Table 8, indazoles): < 15 µM

CC(C)c1ccc(S(=O)(=O)n2ncc3ccc(NC(=O)c4c(F)cccc4Cl)cc32)cc1 [Compound V-120]
IC50 (Table 8, indazoles): < 15 µM

From US9512111B2, “N-sulfonylated tetrahydroquinolines and related bicyclic compounds for inhibition of RORγ activity and the treatment of disease” (Lycera Corporation, priority 2010, dated 2016)
